Data from PubChem BioAssay AID330 (DTP/NCI, 2004).
Where “and” joins values, the source holds several entries; their conditions need not be identical. Equal values may be shown once. Inconclusive results and toxic doses are left out.

Test system: P388 leukemia ip, CD2F1 mice, survival T/C
Assay: NCI In Vivo Anticancer Drug Screen. Data for tumor model P388 Leukemia (intraperitoneal) in CD2F1 (CDF1) mice
Conditions: endpoint: median survival time, higher = longer survival
Description: The antitumor activity of compounds was measured in mice bearing transplantable tumors. Survival or tumor size were measured and the results are expressed as the measurement made in the treated group (T) divided by the measurement made in the vehicle treated control group (C). The tumor model used in this assay is P388 Leukemia (intraperitoneal) in CD2F1 (CDF1) mice

[1] = dose: 50.0 mg/kg/injection, schedule: Q01DX005 (ip), vehicle: saline with Tween-80
[2] = dose: 60.0 mg/kg/injection, schedule: Q01DX005 (ip), vehicle: saline with Tween-80
[3] = dose: 120.0 mg/kg/injection, schedule: Q01DX005 (ip), vehicle: saline with Tween-80
[4] = dose: 240.0 mg/kg/injection, schedule: Q01DX005 (ip), vehicle: saline with Tween-80

With `CC(C)=CC(=O)Sc1ccccc1` the T/C (dose: 12.5 mg/kg/injection, schedule: Q01DX005 (ip), vehicle: saline with Tween-80) was 101 % of control, the T/C (dose: 25.0 mg/kg/injection, schedule: Q01DX005 (ip), vehicle: saline with Tween-80) was 94 % of control and the T/C [1] was 102 % of control and 104 % of control.
In the case of `Cc1ccc(NC(=O)CNCC(C)C)cc1Cl`, the T/C (dose: 50.0 mg/kg/injection, schedule: Q01DX005 (ip), vehicle: Klucel (hydroxypropylcellulose) (HPC)) is reported as 100 % of control, the T/C (dose: 100.0 mg/kg/injection, schedule: Q01DX005 (ip), vehicle: Klucel (hydroxypropylcellulose) (HPC)) is reported as 109 % of control and the T/C (dose: 200.0 mg/kg/injection, schedule: Q01DX005 (ip), vehicle: Klucel (hydroxypropylcellulose) (HPC)) is reported as 100 % of control.
For `O=C(O)CC1Sc2nc3c(n2C1(O)c1ccccc1)-c1ccccc1CC3` (stereo not drawn), the T/C (dose: 25.0 mg/kg/injection, schedule: Q01DX009 (ip), vehicle: Klucel (hydroxypropylcellulose) (HPC)) was 111 % of control, the T/C (dose: 50.0 mg/kg/injection, schedule: Q01DX009 (ip), vehicle: Klucel (hydroxypropylcellulose) (HPC)) was 98 % of control and the T/C (dose: 100.0 mg/kg/injection, schedule: Q01DX009 (ip), vehicle: Klucel (hydroxypropylcellulose) (HPC)) was 100 % of control.
In the case of `Cc1cc(C)nc(NCCCCCCNc2nc(C)cc(C)n2)n1`, the T/C (dose: 100.0 mg/kg/injection, schedule: Q04DX003 (ip), vehicle: saline with Tween-80) is reported as 101 % of control, the T/C (dose: 200.0 mg/kg/injection, schedule: Q04DX003 (ip), vehicle: saline with Tween-80) is reported as 90 % of control and the T/C (dose: 400.0 mg/kg/injection, schedule: Q04DX003 (ip), vehicle: saline with Tween-80) is reported as 92 % of control.
For `O=S1(=O)c2ccccc2C(O)(c2ccccc2)c2cc3ccccc3n21` (stereo not drawn), the T/C (dose: 50.0 mg/kg/injection, schedule: Q01DX009 (ip), vehicle: saline with Tween-80) was 93 % of control, the T/C (dose: 100.0 mg/kg/injection, schedule: Q01DX009 (ip), vehicle: saline with Tween-80) was 96 % of control and the T/C (dose: 200.0 mg/kg/injection, schedule: Q01DX009 (ip), vehicle: saline with Tween-80) was 92 % of control.
In the case of `CN(C(=S)S(C)(=O)=O)c1ccccc1`, the T/C (dose: 3.12 mg/kg/injection, schedule: Q01DX009 (ip), vehicle: Klucel (hydroxypropylcellulose) (HPC)) is reported as 102 % of control, the T/C (dose: 6.25 mg/kg/injection, schedule: Q01DX009 (ip), vehicle: Klucel (hydroxypropylcellulose) (HPC)) is reported as 100 % of control and the T/C (dose: 12.5 mg/kg/injection, schedule: Q01DX009 (ip), vehicle: Klucel (hydroxypropylcellulose) (HPC)) is reported as 86 % of control.
In the case of `O=C(CCCCCCCCC(=O)NO)NO`, the T/C [2] is reported as 96 % of control, the T/C [3] is reported as 100 % of control and the T/C [4] is reported as 100 % of control.
`CS(=O)(=O)C(c1nc2nnc(NC(=O)Nc3ccc(Cl)cc3)n2[nH]c1=O)c1nc2nnc(NC(=O)Nc3ccc(Cl)cc3)n2[nH]c1=O` was tested, and the T/C [2] was 104 % of control, the T/C [3] was 100 % of control and the T/C [4] was 98 % of control.
`Cc1ccc(C#N)c(Cl)c1` was tested, and the T/C (dose: 50.0 mg/kg/injection, schedule: Q01DX009 (ip), vehicle: saline) was 100 % of control, the T/C (dose: 100.0 mg/kg/injection, schedule: Q01DX009 (ip), vehicle: saline) was 100 % of control and the T/C (dose: 200.0 mg/kg/injection, schedule: Q01DX009 (ip), vehicle: saline) was 106 % of control.
With `CCn1cc(C(=O)O)c(=O)c2ccc(C)nc21` (tested in a mixture with another compound) the T/C (dose: 100.0 mg/kg/injection, schedule: Q04DX002 (ip), vehicle: saline with Tween-80) was 99 % of control and the T/C (dose: 200.0 mg/kg/injection, schedule: Q04DX002 (ip), vehicle: saline with Tween-80) was 91 % of control.
In the case of `CCOC(=O)C(Cc1c[nH]c2ccccc12)NC(=O)C1(O)C(O)C2(CC)C=CCN3CCC4(c5cc(C6(C(=O)OC)CC7CC(CC)CN(CCc8c6[nH]c6ccccc86)C7)c(OC)cc5N(C)C14)C32` (stereo not drawn), the T/C (dose: 2.0 mg/kg/injection, schedule: Q01DX001 (ip), vehicle: saline) is reported as 99 % of control, the T/C (dose: 4.0 mg/kg/injection, schedule: Q01DX001 (ip), vehicle: saline) is reported as 118 % of control and the T/C (dose: 16.0 mg/kg/injection, schedule: Q01DX001 (ip), vehicle: saline) is reported as 169 % of control. For the same molecule, the T/C (dose: 32.0 mg/kg/injection, schedule: Q01DX001 (ip), vehicle: saline) was 179 % of control and the T/C (dose: 64.0 mg/kg/injection, schedule: Q01DX001 (ip), vehicle: saline) was 178 % of control.
For `CN(C(=O)C1(C)OC1c1ccccc1)c1ccccc1` (stereo not drawn), the T/C (dose: 100.0 mg/kg/injection, schedule: Q04DX003 (ip), vehicle: Klucel (hydroxypropylcellulose) (HPC)) was 96 % of control, the T/C (dose: 200.0 mg/kg/injection, schedule: Q04DX003 (ip), vehicle: Klucel (hydroxypropylcellulose) (HPC)) was 100 % of control and the T/C (dose: 400.0 mg/kg/injection, schedule: Q04DX003 (ip), vehicle: Klucel (hydroxypropylcellulose) (HPC)) was 94 % of control.
In the case of `Cc1nn2c(nnn2CCO)c1-c1ccccc1`, the T/C (dose: 60.0 mg/kg/injection, schedule: Q01DX005 (ip), vehicle: Klucel (hydroxypropylcellulose) (HPC)) is reported as 105 % of control, the T/C (dose: 120.0 mg/kg/injection, schedule: Q01DX005 (ip), vehicle: Klucel (hydroxypropylcellulose) (HPC)) is reported as 91 % of control and the T/C (dose: 240.0 mg/kg/injection, schedule: Q01DX005 (ip), vehicle: Klucel (hydroxypropylcellulose) (HPC)) is reported as 91 % of control.
`CCOC(=O)N1C=C(C(=O)OC)C(c2ccccc2)C(C(=O)OC)=C1` was tested, and the T/C [1] was 95 % of control, the T/C (dose: 100.0 mg/kg/injection, schedule: Q01DX005 (ip), vehicle: saline with Tween-80) was 106 % of control and the T/C (dose: 200.0 mg/kg/injection, schedule: Q01DX005 (ip), vehicle: saline with Tween-80) was 97 % of control.
